Results from the NIST ThermoML archive (doi:10.1021/je300776s).
± gives the expanded uncertainty stated by the source.

Conditions: for mass density: Vibrating tube method; for vapor or sublimation pressure: Closed cell (Static) method; for viscosity: Capillary tube (Ostwald / Ubbelohde) method; for surface tension liquid-gas: Capillary rise

FC(F)(F)/C=C/Cl [(E)-1-chloro-3,3,3-trifluoroprop-1-ene]
Conditions	Critical temperature [K]	mass density [kg/m3]	vapor or sublimation pressure [kPa]
243.34 K, Liquid	–	1384.7 ± 2.8	–
243.7 K, Liquid	–	1383.98 ± 2.8	–
248.07 K, Liquid	–	1371.38 ± 2.8	–
251.12 K, Liquid	–	1367.4 ± 2.8	–
253.56 K, Liquid	–	1362.51 ± 2.8	–
255.66 K, Liquid	–	1360.3 ± 2.8	–
263.09 K, Liquid	–	–	29.85 ± 0.6
263.36 K, Liquid	–	1341.34 ± 2.7	–
271.16 K, Liquid	–	1323.65 ± 2.7	–
272.95 K, Liquid	–	–	44.51 ± 0.9
273.1 K, Liquid	–	–	47.57 ± 0.96
273.17 K, Liquid	–	1319.65 ± 2.7	–
282.95 K, Liquid	–	–	71.41 ± 1.4
283.08 K, Liquid	–	–	72.74 ± 1.5
283.26 K, Liquid	–	1296.48 ± 2.6	–
290.16 K, Liquid	–	1280.22 ± 2.6	–
291.98 K, Liquid	–	1276.01 ± 2.6	–
293.05 K, Liquid	–	–	107.99 ± 2.2
293.08 K, Liquid	–	–	106.52 ± 2.1
293.21 K, Liquid	–	1273.37 ± 2.6	–
302.85 K, Liquid	–	–	148.21 ± 3
303.01 K, Liquid	–	–	152.1 ± 3.1
312.25 K, Liquid	–	–	203.33 ± 4.1
312.93 K, Liquid	–	–	210.08 ± 4.2
321.85 K, Liquid	–	–	279.37 ± 5.6
323 K, Liquid	–	–	282.13 ± 5.7
332.93 K, Liquid	–	–	382.66 ± 7.7
342.92 K, Liquid	–	–	502.28 ± 10
352.84 K, Liquid	–	–	641.35 ± 13
Liquid, Visual observation in an unstirred cell	438.75 ± 0.17	–	–

Liquid
Conditions	viscosity [mPa·s]
270.24 K, 100 kPa	0.705 ± 0.018
292.03 K, 150 kPa	0.506 ± 0.013
314.25 K, 300 kPa	0.3851 ± 0.0098
336.37 K, 500 kPa	0.294 ± 0.008
353.52 K, 800 kPa	0.2369 ± 0.0061
379.56 K, 1350 kPa	0.1763 ± 0.0046

Conditions	surface tension liquid-gas [mN/m]
273.15 K	16.48 ± 0.34
298.15 K	12.68 ± 0.27
323.15 K	9.01 ± 0.19
